Experimental data: the supplement of paper PMC10307832

Tests used:
Test in all cases: relative viability (nuclei count vs DMSO), 5 days (fraction); higher = more cells survive
[1] = compound: NCC(=O)Nc1ccc(-n2nc(C(F)(F)F)cc2-c2ccc3c(ccc4ccccc43)c2)cc1 + O=C(CCCCCCC(=O)Nc1ccccc1)NO [Vorinostat] (partner 1 µM)
Procedure, shortened: (§1)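 Lung cancer cell lines, seeded in 1536-well plates, were treated the following day by pin tool with a single drug or with five library-drug doses (not always all listed) in √10 steps on top of a fixed anchor-drug dose. Cells were fixed and nuclei stained in one step after 5 days, and nuclei were counted. Relative viability is the nuclei count for treated wells divided by that for vehicle wells, reported as medians of duplicate plates.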

[2] = compound: C1CSC2=C(C(=O)N1)SC3=C2C=C(C=C3)O [kb NB 142-70] + C[C@@H](Oc1cc(-c2cnn(C3CCNCC3)c2)cnc1N)c1c(Cl)ccc(F)c1Cl [Crizotinib] (partner 1 µM)
Procedure, shortened: as §1

[3] = compound: NCC(=O)Nc1ccc(-n2nc(C(F)(F)F)cc2-c2ccc3c(ccc4ccccc43)c2)cc1 + Cc1cc(Nc2cc(N3CCN(C)CC3)nc(Sc3ccc(NC(=O)C4CC4)cc3)n2)n[nH]1 [Tozasertib] (partner 0.1 µM)
Procedure, shortened: as §1

[4] = compound: C1CSC2=C(C(=O)N1)SC3=C2C=C(C=C3)O [kb NB 142-70] + CC(=O)Nc1cccc(-n2c(=O)n(C3CC3)c(=O)c3c(Nc4ccc(I)cc4F)n(C)c(=O)c(C)c32)c1 [Trametinib] (partner 0.02 µM)
Procedure, shortened: as §1

[5] = compound: C1CSC2=C(C(=O)N1)SC3=C2C=C(C=C3)O [kb NB 142-70] + Nc1ncn([C@H]2C[C@H](O)[C@@H](CO)O2)c(=O)n1 [Decitabine] (partner 2 µM)
Procedure, shortened: as §1

Row | Cell Line | relative viability ([1]; first compound 0.02 µM) | relative viability ([1]; first compound 0.06325 µM) | relative viability ([1]; first compound 0.2 µM) | relative viability ([1]; first compound 0.6325 µM) | relative viability ([1]; first compound 2 µM) | relative viability ([2]; first compound 0.1 µM) | relative viability ([2]; first compound 1 µM) | relative viability ([2]; first compound 3.162 µM) | relative viability ([3]; first compound 0.02 µM) | relative viability ([3]; first compound 0.06325 µM) | relative viability ([3]; first compound 0.2 µM) | relative viability ([3]; first compound 0.6325 µM) | relative viability ([3]; first compound 2 µM) | relative viability ([4]; first compound 0.1 µM) | relative viability ([4]; first compound 1 µM) | relative viability ([4]; first compound 3.162 µM) | relative viability ([5]; first compound 0.1 µM) | relative viability ([5]; first compound 1 µM) | relative viability ([5]; first compound 3.162 µM)
1 | LU99A | 0.415 | 0.588 | 0.519 | 0.56 | 0.535 | 0.577 | 0.506 | 0.397 | 0.241 | 0.273 | 0.259 | 0.271 | 0.265 | 0.559 | 0.598 | 0.467 | 1.09 | 0.9 | 0.708
2 | NCI-H1355 | 0.636 | 0.709 | 0.676 | 0.655 | 0.653 | 1.02 | 1.03 | 1.05 | 0.558 | 0.657 | 0.574 | 0.57 | 0.57 | 0.384 | 0.387 | 0.447 | 0.39 | 0.355 | 0.342
3 | HCC-78 | 0.398 | 0.481 | 0.472 | 0.466 | 0.454 | 0.305 | 0.372 | 0.353 | 0.408 | 0.415 | 0.501 | 0.403 | 0.411 | 0.683 | 0.823 | 0.838 | 0.683 | 0.727 | 0.677
4 | NCI-H1563 | – | – | – | – | – | 0.864 | 0.853 | 0.839 | – | – | – | – | – | – | – | – | – | – | –
5 | HCC-15 | 0.878 | 0.94 | 1.04 | 0.861 | 0.841 | 0.773 | 0.85 | 0.813 | 0.379 | 0.416 | 0.39 | 0.489 | 0.347 | 0.373 | 0.355 | 0.444 | 0.618 | 0.694 | 0.553
6 | EKVX | 0.726 | 0.83 | 0.751 | 0.724 | 0.731 | 0.884 | 1.04 | 1.19 | 0.443 | 0.374 | 0.431 | 0.39 | 0.386 | 0.357 | 0.378 | 0.296 | 0.369 | 0.311 | 0.364
7 | NCI-H2087 | 0.752 | 0.618 | 0.809 | 0.649 | 0.668 | 0.562 | 0.903 | 0.868 | 0.208 | 0.272 | 0.21 | 0.26 | 0.259 | 0.18 | 0.263 | 0.194 | 0.277 | 0.245 | 0.189
8 | LK-2 | 0.445 | 0.279 | 0.244 | 0.288 | 0.256 | 0.225 | 0.226 | 0.204 | 0.159 | 0.185 | 0.183 | 0.188 | 0.171 | 0.814 | 0.651 | 0.729 | 0.37 | 0.282 | 0.195
9 | NCI-H1437 | 0.834 | 0.866 | 0.887 | 0.802 | 0.754 | 1.01 | 0.997 | 0.946 | 0.407 | 0.383 | 0.413 | 0.402 | 0.387 | 0.601 | 0.704 | 0.502 | 0.578 | 0.55 | 0.536
